What follows are compounds tested against ROCK2 (Homo sapiens (Human), UniProt O75116) (assay: ROCK assay (Caliper LABCHIP peptide phosphorylation)). Details: 5 μM ATP, 1.5 μM peptide substrate.
Type: biochemical
Procedure: The effectiveness of compounds of the present invention as ROCK inhibitors can be determined in a 30 μL assay containing 20 mM HEPES, pH 7.5, 20 mM MgCl2, 0.015% Brij-35, 4 mM DTT, 5 μM ATP and 1.5 μM peptide substrate (FITC-AHA-AKRRRLSSLRA-OH) (SEQ ID No. 1). Compounds were dissolved in DMSO so that the final concentration of DMSO was <2%, and the reaction was initiated with Rho kinase variants. After incubation, the reaction was terminated by the addition of EDTA and the phosphorylated and non-phosphorylated peptides separated using a LABCHIP® 3000 Reader (Caliper Life Sciences). […] Compounds were tested in dose-response format, and the inhibition of kinase activity was calculated at each concentration of compound. The inhibition data were fit using a curve-fitting program to determine the IC50; i.e., the concentration of compound required to inhibit 50% of kinase activity. Representative Examples were tested in the ROCK assay described above and found having ROCK inhibitory activity. A range of ROCK inhibitory activity (IC50 values) of ≤50 μM (50000 nM) was observed. Table A below lists the ROCK IC50 values measured for the following examples.

Chain of ROCK2 (O75116 whole entry, species assumed): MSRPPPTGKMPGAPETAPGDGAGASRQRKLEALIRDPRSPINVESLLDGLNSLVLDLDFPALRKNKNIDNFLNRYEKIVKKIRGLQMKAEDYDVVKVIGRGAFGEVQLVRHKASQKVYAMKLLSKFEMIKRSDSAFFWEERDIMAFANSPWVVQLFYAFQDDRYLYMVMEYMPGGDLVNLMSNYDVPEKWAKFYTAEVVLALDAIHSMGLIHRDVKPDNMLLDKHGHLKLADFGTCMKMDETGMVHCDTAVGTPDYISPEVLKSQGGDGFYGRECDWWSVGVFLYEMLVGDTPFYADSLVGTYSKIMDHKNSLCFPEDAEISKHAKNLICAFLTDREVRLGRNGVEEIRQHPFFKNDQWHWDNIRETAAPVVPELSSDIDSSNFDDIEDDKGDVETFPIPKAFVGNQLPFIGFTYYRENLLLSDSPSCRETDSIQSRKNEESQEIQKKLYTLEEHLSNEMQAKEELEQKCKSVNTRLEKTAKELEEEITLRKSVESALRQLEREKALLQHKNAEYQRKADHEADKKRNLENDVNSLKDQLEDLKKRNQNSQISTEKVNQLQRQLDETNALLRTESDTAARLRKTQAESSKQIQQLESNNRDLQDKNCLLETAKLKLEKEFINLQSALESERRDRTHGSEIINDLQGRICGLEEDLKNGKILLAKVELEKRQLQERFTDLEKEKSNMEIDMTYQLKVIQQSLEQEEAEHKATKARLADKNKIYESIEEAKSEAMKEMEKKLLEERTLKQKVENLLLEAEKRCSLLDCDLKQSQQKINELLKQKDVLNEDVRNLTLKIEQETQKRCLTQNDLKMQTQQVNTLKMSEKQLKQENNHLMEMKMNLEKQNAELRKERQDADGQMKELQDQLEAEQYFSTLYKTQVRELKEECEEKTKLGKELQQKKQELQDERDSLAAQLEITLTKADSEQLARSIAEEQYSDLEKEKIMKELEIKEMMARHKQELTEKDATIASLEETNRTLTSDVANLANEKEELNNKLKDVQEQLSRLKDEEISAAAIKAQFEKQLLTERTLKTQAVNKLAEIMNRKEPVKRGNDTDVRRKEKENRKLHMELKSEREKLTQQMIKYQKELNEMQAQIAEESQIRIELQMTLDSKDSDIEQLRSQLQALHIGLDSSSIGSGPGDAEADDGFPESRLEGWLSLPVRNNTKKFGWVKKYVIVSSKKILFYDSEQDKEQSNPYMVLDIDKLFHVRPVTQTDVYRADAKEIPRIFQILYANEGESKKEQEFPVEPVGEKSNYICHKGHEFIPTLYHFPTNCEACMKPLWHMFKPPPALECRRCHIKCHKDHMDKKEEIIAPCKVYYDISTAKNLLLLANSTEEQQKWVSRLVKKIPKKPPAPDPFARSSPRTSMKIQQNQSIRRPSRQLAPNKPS

| IC50 | SMILES |
| --- | --- |
| 515 nM | CC(C)CN1CC(=O)N([C@H]2C[C@@]3(C[C@H](Oc4ncccc4C(N)=O)C3)C2)C1=O (stereo partly shown) [Example 13, 2-{[(αR)-6-[3-(2-methylpropyl)-2,5-dioxoimidazol-idin-1-yl]spiro-[3.3]heptan-2-yl]-oxy}pyridine-3-carboxamide] |
| 562 nM | C#CCC1NC(=O)N([C@H]2C[C@@]3(C[C@H](Oc4ncccc4C(N)=O)C3)C2)C1=O (stereo partly shown) [Example 14, 2-{[(αR)-6-[2,5-dioxo-4-(prop-2-yn-1-yl)imidazol-idin-1-yl]spiro-[3.3]heptan-2-yl]oxy}pyridine-3-carboxamide] |
| 744 nM | CC(C)(C)OC(=O)NCCCC1NC(=O)N([C@H]2C[C@@]3(C[C@H](Oc4ncccc4C(N)=O)C3)C2)C1=O (stereo partly shown) [Example 15, tert-butyl N-(3-{2,5-dioxo-1-[(αR)-6-[(3-carbamoylpyridin-2-yl)oxy]spiro-[3.3]heptan-2-yl]imidazolidin-4-yl}propyl)-carbamate] |
| 902 nM | NC(=O)c1cccnc1O[C@H]1C[C@]2(C1)C[C@H](N1C(=O)NC3(CCC3)C1=O)C2 (stereo partly shown) [Example 16, 2-{[(αR)-6-{6,8-dioxo-5,7-diaza-spiro[3.4]octan-7-yl}spiro[3.3]-heptan-2-yl]oxy}-pyridine-3-carbox-amide] |
| 1340 nM | NC(=O)c1cccnc1O[C@H]1C[C@]2(C1)C[C@H](N1C(=O)C3CCCCN3C1=O)C2 (stereo partly shown) [Example 17, 2-{[(αR)-6-{1,3-dioxo-hexahydro-1H-piperidino[1,2-c]imidazolidin-2-yl}spiro[3.3]heptan-2-yl]oxy}pyridine-3-carboxamide] |
| 1500 nM | NC(=O)c1cccnc1O[C@H]1C[C@]2(C1)C[C@H](N1C(=O)NC(CCO)C1=O)C2 (stereo partly shown) [Example 18, 2-{[(αR)-6-[2,5-dioxo-4-(2-hydroxyethyl)-imidazolidin-1-yl]spiro[3.3]-heptan-2-yl)oxy}-pyridine-3-carboxamide] |
| 1630 nM | Cn1cnc(CC2NC(=O)N([C@H]3C[C@@]4(C[C@H](Oc5ncccc5C(N)=O)C4)C3)C2=O)c1 (stereo partly shown) [Example 19, 2-{[(αR)-6-[2,5-dioxo-4-(1-methyl-4-imidazylmethyl)-imidazolidin-1-yl]spiro[3.3]heptan-2-yl]oxy}pyridine-3-carboxamide] |
| 2950 nM | NC(=O)c1cccnc1O[C@H]1C[C@]2(C1)C[C@H](N1C(=O)NC(Cc3c[nH]cn3)C1=O)C2 (stereo partly shown) [Example 22] |
| 2020 nM | NC(=O)c1cccnc1O[C@H]1C[C@]2(C1)C[C@H](N1C(=O)C3CCCN3C1=O)C2 (stereo partly shown) [Example 23, 2-{[(αR)-6-{1,3-dioxo-hexahydro-1H-pyrrolo[1,2-c]imidazolidin-2-yl}spiro[3.3]-heptan-2-yl]oxy}-pyridine-3-carbox-amide] |
| 197 nM | [H][C@]1(Oc2ncccc2C(N)=O)C[C@]2(C[C@@H](N3C(=O)N[C@@H](Cc4ccccc4)C3=O)C2)C1 (stereo partly shown) [Example 24] |
| 10 nM | CC(C)(C)C[C@@H]1NC(=O)N([C@H]2C[C@@]3(C[C@H](Oc4ncccc4C(N)=O)C3)C2)C1=O (stereo partly drawn) [Example 25, 2-{[(αR)-6-[(4S)-4-(2,2-dimethyl-propyl)-2,5-dioxo-imidazolidin-1-yl]-spiro[3.3]heptan-2-yl]oxy}pyridine-3-carboxamide] |
| 38 nM | NC(=O)c1cccnc1O[C@H]1C[C@]2(C1)C[C@H](N1C(=O)N[C@@H](CC3CC3)C1=O)C2 (stereo partly drawn) [Example 26, 2-{[(αR)-6-[(4S)-4-(cyclopropyl-methyl)-2,5-dioxo-imidazolidin-1-yl]-spiro[3.3]heptan-2-yl]oxy}pyridine-3-carboxamide] |
| 45 nM | CC[C@H](C)[C@@H]1NC(=O)N([C@H]2C[C@@]3(C[C@H](Oc4ncccc4C(N)=O)C3)C2)C1=O (stereo partly drawn) [Example 27, 2-{[(αR)-6-[(4S)-4-[(2S)-butan-2-yl]-2,5-dioxoimidazol-idin-1-yl]spiro-[3.3]heptan-2-yl]-oxy}pyridine-3-carboxamide] |
| 57 nM | CCCC[C@@H]1NC(=O)N([C@H]2C[C@@]3(C[C@H](Oc4ncccc4C(N)=O)C3)C2)C1=O (stereo partly drawn) [Example 28, 2-{[(αR)-6-[(4S)-4-butyl-2,5-dioxo-imidazolidin-1-yl]spiro[3.3]heptan-2-yl]oxy}pyridine-3-carboxamide] |
| 62 nM | NC(=O)c1cccnc1O[C@H]1C[C@]2(C1)C[C@H](N1C(=O)NC(CCC(F)(F)F)C1=O)C2 (stereo partly shown) [Example 29, 2-{[(αR)-6-[2,5-dioxo-4-(3,3,3-trifluoropropyl)-imidazolidin-1-yl]spiro[3.3]-heptan-2-yl]oxy}-pyridine-3-carbox-amide] |
| 89 nM | CSCC[C@@H]1NC(=O)N([C@H]2C[C@@]3(C[C@H](Oc4ncccc4C(N)=O)C3)C2)C1=O (stereo partly drawn) [Example 30, 2-{[(αR)-6-[(4S)-4-[2-(methyl-sulfanyl)ethyl]-2,5-dioxoimidazol-idin-1-yl]spiro-[3.3]heptan-2-yl]-oxy}pyridine-3-carboxamide] |

| IC50 | SMILES |
| --- | --- |
| 123 nM | CCC[C@@H]1NC(=O)N([C@H]2C[C@@]3(C[C@H](Oc4ncccc4C(N)=O)C3)C2)C1=O (stereo partly drawn) [Example 31, 2-{[(αR)-6-[(4S)-2,5-dioxo-4-propyl-imidazolidin-1-yl]-spiro[3.3]heptan-2-yl]oxy}pyridine-3-carboxamide] |
| 156 nM | NC(=O)c1cccnc1O[C@H]1C[C@]2(C1)C[C@H](N1C(=O)N[C@@H](CC(F)(F)F)C1=O)C2 (stereo partly drawn) [Example 32, 2-{[(αR)-6-[(4S)-2,5-dioxo-4-(2,2,2-trifluoroethyl)-imidazolidin-1-yl]-spiro[3.3]heptan-2-yl]oxy}pyridine-3-carboxamide] |
| 426 nM | NC(=O)c1cccnc1O[C@H]1C[C@]2(C1)C[C@H](N1C(=O)N[C@@H](CCOCc3ccccc3)C1=O)C2 (stereo partly drawn) [Example 33, 2-{[(αR)-6-[(4S)-4-[2-(benzyloxy)-ethyl]-2,5-dioxo-imidazolidin-1-yl]-spiro[3.3]heptan-2-yl]oxy}pyridine-3-carboxamide] |
| 539 nM | NC(=O)c1cccnc1OC1CC2(C1)CC(N1C(=O)N[C@H](Cc3ccccc3)C1=O)C2 (stereo partly drawn) [Example 34, 2-({6-[(4R)-4-benzyl-2,5-dioxo-imidazolidin-1-yl]-spiro[3.3]heptan-2-yl}oxy)pyridine-3-carboxamide] |
| 1660 nM | CC[C@@H]1NC(=O)N([C@H]2C[C@@]3(C[C@H](Oc4ncccc4C(N)=O)C3)C2)C1=O (stereo partly drawn) [Example 35, 2-{[(αR)-6-((4S)-4-ethyl-2,5-dioxo-imidazolidin-1-yl]-spiro[3.3]heptan-2-yl]oxy}pyridine-3-carboxamide] |
| 2390 nM | COC[C@@H]1NC(=O)N([C@H]2C[C@@]3(C[C@H](Oc4ncccc4C(N)=O)C3)C2)C1=O (stereo partly drawn) [Example 36, 2-{[(αR)-6-[(4S)-4-(methoxymethyl)-2,5-dioxoimidazol-idin-1-yl]spiro-[3.3]heptan-2-yl]-oxy}pyridine-3-carboxamide] |
| 44 nM | [H][C@]1(Oc2ncccc2C(N)=O)C[C@]2(C[C@@H](N3C(=O)NC(CCC4CC4)C3=O)C2)C1 (stereo partly shown) [Example 37] |
| 14 nM | CCCC(C)CC1NC(=O)N([C@H]2C[C@@]3(C[C@H](Oc4ncccc4C(N)=O)C3)C2)C1=O (stereo partly shown) [Example 39, 2-{[(αR)-6-[4-(2-methylpentyl)-2,5-dioxoimidazolidin-1-yl]spiro[3.3]-heptan-2-yl]oxy}-pyridine-3-carbox-amide] |
| 19 nM | CCC(C)CC1NC(=O)N([C@H]2C[C@@]3(C[C@H](Oc4ncccc4C(N)=O)C3)C2)C1=O (stereo partly shown) [Example 41, 2-{[(αR)-6-[4-(2-methylbutyl)-2,5-dioxoimidazolidin-1-yl]spiro[3.3]-heptan-2-yl]oxy}-pyridine-3-carbox-amide] |
| 29 nM | CC(C)CC1NC(=O)N([C@H]2C[C@@]3(C[C@H](Oc4ncccc4C(N)=O)C3)C2)C1=O (stereo partly shown) [Example 44, 2-{[(αR)-6-[4-(2-methylpropyl)-2,5-dioxoimidazolidin-1-yl]spiro[3.3]-heptan-2-yl]oxy}-pyridine-3-carbox-amide] |
| 30 nM | NC(=O)c1cccnc1O[C@H]1C[C@]2(C1)C[C@H](N1C(=O)NC(CC3CCCC3)C1=O)C2 (stereo partly shown) [Example 45, 2-{[(αR)-6-[4-(cyclopentyl-methyl)-2,5-dioxo-imidazolidin-1-yl]spiro[3.3]-heptan-2-yl]oxy}-pyridine-3-carbox-amide] |
| 48 nM | NC(=O)c1cccnc1O[C@H]1C[C@]2(C1)C[C@H](N1C(=O)NC(CC3CC(F)(F)C3)C1=O)C2 (stereo partly shown) [Example 46, 2-{[(αR)-6-{4-[(3,3-difluorocyclo-butyl)methyl]-2,5-dioxoimidazolidin-1-yl}spiro[3.3]-heptan-2-yl]oxy}-pyridine-3-carbox-amide] |
| 99 nM | NC(=O)c1cccnc1O[C@H]1C[C@]2(C1)C[C@H](N1C(=O)NC(CCC(F)(F)F)C1=O)C2 (stereo partly shown) [Example 49, 2-{[(αR)-6-[2,5-dioxo-4-(3,3,3-trifluoropropyl)-imidazolidin-1-yl]-spiro[3.3]heptan-2-yl]oxy}pyridine-3-carboxamide] |
| 155 nM | CCC(CC)C1NC(=O)N([C@H]2C[C@@]3(C[C@H](Oc4ncccc4C(N)=O)C3)C2)C1=O (stereo partly shown) [Example 51, 2-{[(αR)-6-[2,5-dioxo-4-(pentan-3-yl)imidazolidin-1-yl]spiro[3.3]heptan-2-yl]oxy}pyridine-3-carboxamide] |
| 186 nM | CC(C)CCC1NC(=O)N([C@H]2C[C@@]3(C[C@H](Oc4ncccc4C(N)=O)C3)C2)C1=O (stereo partly shown) [Example 54, 2-{[(αR)-6-[4-(3-methylbutyl)-2,5-dioxoimidazolidin-1-yl]spiro[3.3]-heptan-2-yl]oxy}-pyridine-3-carbox-amide] |

Reference: patent US11447487B2, “Spiroheptanyl hydantoins as rock inhibitors” (BRISTOL-MYERS SQUIBB COMPANY, priority 2017, dated 2022)
